The values below come from patent publication US6375974B1 (Mitsui Takeda Chemicals, Inc., priority 1998, dated 2002).

Each structure is given as a SMILES string.

The conditions of series [1]: ethanol; cited from earlier work.
A short description of series [2]: dissolution of fine grains in water by slow stirring. It is filed as physicochemical. The conditions noted are these: 15 g fine grains (80-mesh pass) in 10 l of water at 20° C., slowly stirred for 24 hours. From the text: Because of the low dissolution rate, fumaric acid cannot be completely dissolved but remains as fine grains giving a slurry in these conventional methods. […] When such an aqueous fumaric acid solution is employed in sterilizing meats, the remaining fumaric acid grains sometimes damage the meat tissue.

Series [3] deals with gram negative bacteria. The conditions noted are these: cited from earlier work.
For series [4], the system named is various bacteria such as E. coli 0-157. The note with it: at 1.0% and 1.5%; cited from earlier work.
Series [5] has as its system various gram negative bacteria. The note with it: cited from earlier work.
The test system of series [6] is Escherichia coli O-157. The note with it: cited from earlier work.
For series [7] the following is noted: cited from earlier work.

As for `CCO` [ethanol], the “time after which a bactericidal effect was exerted” value in series [1] was 60 min.
As for `O=C(O)/C=C/C(=O)O` [fumaric acid], the “dissolution of fine grains” value in series [2] is listed as “not completely dissolved”. Besides, in series [3], the “growth of gram negative bacteria” value is “inhibited the growth”. Moreover, in series [4], the “bactericidal effect compared with other organic acids” value is “exceeding those of other organic acids”. Moreover, the bactericidal effect result in series [5] (gram negative bacteria (E. coli, salmonella, Shigella, etc.), short contact time) is on record as “potent bactericidal effect”; in series [6], “strong bactericidal effect”. For the same compound, in series [5] (within a short time, compared with other organic acids), the antibacterial effect entry is listed as “strong antibacterial effect”.
For the compound `O=C([O-])/C=C/C(=O)O.[Na+]` [monosodium fumarate], in series [7] (aqueous solution), the “concentration showing bactericidal effects” value is listed as 0.8%. In series [7] (concentration of 0.6% or less), the bactericidal effects entry is reported as “did not show bactericidal effects”.
